Measured values from the NIST ThermoML archive (doi:10.1021/acs.jced.8b00837).
Several values for one entry are separate records, joined by “and”; a condition that tells them apart may be missing. Equal entries are not always repeated. Numbers after ± are expanded uncertainties.

Settings: Liquid, Vibrating tube method

CCCCn1cc[n+](C)c1.O=S(=O)([O-])C(F)(F)F [1-butyl-3-methylimidazolium trifluoromethanesulfonate]
Settings | mass density
283.14 K, 20345 kPa | 1320.61 ± 1.8 kg/m3
283.15 K, 101 kPa | 1309.81 ± 1.5 kg/m3 and 1309.8 ± 1.5 kg/m3
283.15 K, 5337 kPa | 1312.37 ± 1.6 kg/m3
283.15 K, 9906 kPa | 1315.03 ± 1.7 kg/m3
283.15 K, 29997 kPa | 1325.6 ± 2 kg/m3
283.15 K, 90097 kPa | 1353.37 ± 2.9 kg/m3
283.15 K, 100086 kPa | 1357.13 ± 3 kg/m3
283.15 K, 109957 kPa | 1361.36 ± 3.2 kg/m3
283.15 K, 119997 kPa | 1365.53 ± 3.4 kg/m3
283.15 K, 129993 kPa | 1369.54 ± 3.5 kg/m3
283.15 K, 139996 kPa | 1373.39 ± 3.7 kg/m3
283.16 K, 49996 kPa | 1335.42 ± 2.2 kg/m3
283.16 K, 60363 kPa | 1340.27 ± 2.4 kg/m3
283.16 K, 69993 kPa | 1344.64 ± 2.6 kg/m3
283.16 K, 79621 kPa | 1348.88 ± 2.7 kg/m3
283.17 K, 1225 kPa | 1310.35 ± 1.6 kg/m3
283.17 K, 40094 kPa | 1330.63 ± 2.1 kg/m3
288.15 K, 101 kPa | 1305.77 ± 1.5 kg/m3
293.15 K, 101 kPa | 1301.75 ± 1.5 kg/m3 and 1301.72 ± 1.5 kg/m3
293.15 K, 9722 kPa | 1307 ± 1.6 kg/m3
293.15 K, 20425 kPa | 1312.86 ± 1.8 kg/m3
293.15 K, 29997 kPa | 1317.9 ± 1.9 kg/m3
293.15 K, 49997 kPa | 1327.93 ± 2.2 kg/m3
293.15 K, 69996 kPa | 1337.34 ± 2.5 kg/m3
293.15 K, 89996 kPa | 1346.17 ± 2.8 kg/m3
293.15 K, 109846 kPa | 1354.33 ± 3.2 kg/m3
293.15 K, 119150 kPa | 1358.24 ± 3.3 kg/m3
293.15 K, 129846 kPa | 1362.58 ± 3.5 kg/m3
293.15 K, 138949 kPa | 1366.14 ± 3.6 kg/m3
293.16 K, 40322 kPa | 1323.16 ± 2.1 kg/m3
293.16 K, 60340 kPa | 1332.87 ± 2.4 kg/m3
293.16 K, 100028 kPa | 1350.06 ± 3 kg/m3
293.17 K, 80507 kPa | 1342.04 ± 2.7 kg/m3
293.2 K, 1740 kPa | 1302.55 ± 1.5 kg/m3
293.2 K, 4978 kPa | 1304.2 ± 1.6 kg/m3
298.13 K, 30005 kPa | 1314.25 ± 1.9 kg/m3
298.13 K, 90001 kPa | 1342.82 ± 2.8 kg/m3
298.14 K, 59968 kPa | 1329.2 ± 2.4 kg/m3
298.15 K, 101 kPa | 1297.74 ± 1.5 kg/m3 and 1297.8 ± 1.5 kg/m3
298.15 K, 1023 kPa | 1298.28 ± 1.5 kg/m3
298.15 K, 10006 kPa | 1303.37 ± 1.6 kg/m3
298.15 K, 19968 kPa | 1308.89 ± 1.8 kg/m3
298.15 K, 40008 kPa | 1319.41 ± 2.1 kg/m3
298.15 K, 49962 kPa | 1324.37 ± 2.2 kg/m3
298.15 K, 70005 kPa | 1333.89 ± 2.5 kg/m3
298.15 K, 79986 kPa | 1338.41 ± 2.7 kg/m3
298.15 K, 99997 kPa | 1347.1 ± 3 kg/m3
298.15 K, 109968 kPa | 1351.04 ± 3.1 kg/m3
298.15 K, 120001 kPa | 1355.27 ± 3.3 kg/m3
298.15 K, 139996 kPa | 1363.31 ± 3.6 kg/m3
298.16 K, 5026 kPa | 1300.4 ± 1.6 kg/m3
298.16 K, 130002 kPa | 1359.35 ± 3.5 kg/m3
303.15 K, 101 kPa | 1293.74 ± 1.5 kg/m3
313.13 K, 101 kPa | 1285.81 ± 1.5 kg/m3
313.15 K, 101 kPa | 1285.7 ± 1.5 kg/m3
313.15 K, 10395 kPa | 1291.48 ± 1.6 kg/m3
313.15 K, 20326 kPa | 1296.92 ± 1.7 kg/m3
313.15 K, 29996 kPa | 1302.11 ± 1.9 kg/m3
313.15 K, 40009 kPa | 1307.36 ± 2 kg/m3
313.15 K, 49994 kPa | 1312.48 ± 2.1 kg/m3
313.15 K, 70102 kPa | 1322.42 ± 2.4 kg/m3
313.15 K, 79871 kPa | 1327.08 ± 2.6 kg/m3
313.15 K, 90021 kPa | 1331.79 ± 2.8 kg/m3
313.15 K, 99922 kPa | 1336.27 ± 2.9 kg/m3
313.15 K, 109826 kPa | 1340.63 ± 3.1 kg/m3
313.15 K, 121633 kPa | 1345.69 ± 3.3 kg/m3
313.15 K, 129825 kPa | 1349.1 ± 3.4 kg/m3
313.15 K, 139153 kPa | 1352.88 ± 3.5 kg/m3
313.16 K, 60130 kPa | 1317.55 ± 2.3 kg/m3
313.2 K, 1097 kPa | 1286.27 ± 1.5 kg/m3
313.2 K, 5364 kPa | 1288.67 ± 1.5 kg/m3
333.09 K, 1557 kPa | 1270.96 ± 1.5 kg/m3
333.1 K, 5234 kPa | 1273.19 ± 1.5 kg/m3
333.11 K, 9847 kPa | 1275.96 ± 1.6 kg/m3
333.14 K, 19578 kPa | 1281.68 ± 1.7 kg/m3
333.15 K, 101 kPa | 1270.09 ± 1.4 kg/m3 and 1270.06 ± 1.4 kg/m3
333.15 K, 29996 kPa | 1287.62 ± 1.8 kg/m3
333.15 K, 69992 kPa | 1308.75 ± 2.4 kg/m3
333.15 K, 79293 kPa | 1313.31 ± 2.5 kg/m3
333.15 K, 89992 kPa | 1318.4 ± 2.7 kg/m3
333.15 K, 98041 kPa | 1322.14 ± 2.8 kg/m3
333.15 K, 109813 kPa | 1327.45 ± 3 kg/m3
333.16 K, 49998 kPa | 1298.5 ± 2.1 kg/m3
333.16 K, 59777 kPa | 1303.59 ± 2.2 kg/m3
333.16 K, 119774 kPa | 1331.81 ± 3.1 kg/m3
333.16 K, 129813 kPa | 1336.09 ± 3.3 kg/m3
333.16 K, 138881 kPa | 1339.86 ± 3.5 kg/m3
333.17 K, 39827 kPa | 1293.05 ± 1.9 kg/m3
343.15 K, 101 kPa | 1262.32 ± 1.4 kg/m3
353.13 K, 5397 kPa | 1257.9 ± 1.5 kg/m3
353.14 K, 1725 kPa | 1255.5 ± 1.4 kg/m3
353.14 K, 10408 kPa | 1261.13 ± 1.5 kg/m3
353.14 K, 60245 kPa | 1290.27 ± 2.2 kg/m3
353.14 K, 69993 kPa | 1295.39 ± 2.3 kg/m3
353.14 K, 79196 kPa | 1300.06 ± 2.4 kg/m3
353.14 K, 119409 kPa | 1318.82 ± 3 kg/m3
353.15 K, 101 kPa | 1254.61 ± 1.4 kg/m3 and 1254.43 ± 1.4 kg/m3
353.15 K, 49992 kPa | 1284.69 ± 2 kg/m3
353.15 K, 89993 kPa | 1305.36 ± 2.6 kg/m3
353.15 K, 97743 kPa | 1309.04 ± 2.7 kg/m3
353.15 K, 109795 kPa | 1314.57 ± 2.9 kg/m3
353.15 K, 129794 kPa | 1323.26 ± 3.2 kg/m3
353.16 K, 40316 kPa | 1279.23 ± 1.9 kg/m3
353.16 K, 139089 kPa | 1327.11 ± 3.4 kg/m3
353.17 K, 29996 kPa | 1273.21 ± 1.8 kg/m3
353.19 K, 20124 kPa | 1267.23 ± 1.6 kg/m3
373.12 K, 78937 kPa | 1286.82 ± 2.4 kg/m3
373.14 K, 1630 kPa | 1240.5 ± 1.5 kg/m3
373.14 K, 4913 kPa | 1242.76 ± 1.5 kg/m3
373.14 K, 40245 kPa | 1265.34 ± 1.9 kg/m3
373.14 K, 69993 kPa | 1282.13 ± 2.2 kg/m3
373.14 K, 89993 kPa | 1292.43 ± 2.5 kg/m3
373.14 K, 99354 kPa | 1297.01 ± 2.6 kg/m3
373.14 K, 109823 kPa | 1301.97 ± 2.8 kg/m3
373.15 K, 101 kPa | 1239.37 ± 1.5 kg/m3 and 1239.44 ± 1.5 kg/m3
373.15 K, 20238 kPa | 1252.94 ± 1.7 kg/m3
373.15 K, 29993 kPa | 1259.1 ± 1.8 kg/m3
373.15 K, 49994 kPa | 1271.05 ± 2 kg/m3
373.15 K, 59359 kPa | 1276.34 ± 2.1 kg/m3
373.15 K, 118844 kPa | 1306.11 ± 2.9 kg/m3
373.15 K, 129824 kPa | 1311 ± 3.1 kg/m3
373.15 K, 139225 kPa | 1315.08 ± 3.2 kg/m3
373.16 K, 10553 kPa | 1246.58 ± 1.6 kg/m3
393.12 K, 20141 kPa | 1238.76 ± 1.6 kg/m3
393.13 K, 29997 kPa | 1245.39 ± 1.7 kg/m3
393.13 K, 39789 kPa | 1251.72 ± 1.8 kg/m3
393.14 K, 10362 kPa | 1231.9 ± 1.5 kg/m3
393.14 K, 99285 kPa | 1284.99 ± 2.6 kg/m3
393.14 K, 118691 kPa | 1294.13 ± 2.9 kg/m3
393.15 K, 101 kPa | 1224.37 ± 1.4 kg/m3 and 1224.41 ± 1.4 kg/m3
393.15 K, 49984 kPa | 1258.04 ± 1.9 kg/m3
393.15 K, 69997 kPa | 1269.67 ± 2.2 kg/m3
393.15 K, 89992 kPa | 1280.34 ± 2.4 kg/m3
393.15 K, 109795 kPa | 1290.04 ± 2.7 kg/m3
393.15 K, 129796 kPa | 1299.01 ± 3 kg/m3
393.15 K, 139693 kPa | 1303.18 ± 3.2 kg/m3
393.16 K, 60109 kPa | 1264.05 ± 2 kg/m3
393.16 K, 79320 kPa | 1274.76 ± 2.3 kg/m3
393.17 K, 1385 kPa | 1225.37 ± 1.5 kg/m3
393.18 K, 5168 kPa | 1228.15 ± 1.5 kg/m3
413.13 K, 1691 kPa | 1210.63 ± 1.4 kg/m3
413.13 K, 99873 kPa | 1273.17 ± 2.5 kg/m3
413.15 K, 101 kPa | 1209.6 ± 1.4 kg/m3 and 1209.39 ± 1.4 kg/m3
413.15 K, 5006 kPa | 1213.19 ± 1.5 kg/m3
413.15 K, 80334 kPa | 1262.84 ± 2.2 kg/m3
413.15 K, 89994 kPa | 1268.07 ± 2.4 kg/m3
413.15 K, 109886 kPa | 1278.08 ± 2.6 kg/m3
413.17 K, 129886 kPa | 1287.14 ± 2.9 kg/m3
413.17 K, 139479 kPa | 1291.12 ± 3.1 kg/m3
413.18 K, 69993 kPa | 1256.95 ± 2.1 kg/m3
413.18 K, 119193 kPa | 1282.42 ± 2.8 kg/m3
413.2 K, 10288 kPa | 1217.19 ± 1.5 kg/m3
413.2 K, 19961 kPa | 1224.32 ± 1.6 kg/m3
413.2 K, 29916 kPa | 1231.38 ± 1.7 kg/m3
413.2 K, 39957 kPa | 1238.21 ± 1.8 kg/m3
413.2 K, 49993 kPa | 1244.75 ± 1.9 kg/m3
413.21 K, 59956 kPa | 1250.96 ± 2 kg/m3
